From patent publication US20140012013A1, “METHOD FOR PRODUCING PYRAZOLE CARBOXYLIC ACID DERIVATIVE” (SHIONOGI & CO., LTD., priority 2011, published 2014)

Experiment: log k′ (degree of lipophilic character) from HPLC retention time under gradient condition
Format: physicochemical
Conditions: XTerra MS C18 5 μm, 2.1×100 mm column; acetonitrile/pH6.8 buffer 5:95~95:5/20 min; flow 0.25 mL/min
Experimental: log k′ is a value which means degree of the lipophilic character, and is calculated by the following formula.
tR: retention time of compound under gradient condition t0: retention time of standard material not retained in column
XTerra MS C18 5 μm, 2.1×100 mm column (made by Waters) was used for measurement. The elution was a straight line inclination of acetonitrile/pH6.8 buffer (5:95˜95:5/20 min) at flow velocity 0.25 mL/min.

**Q.** Which “log k′” value does the source give for `CC(=O)NCC12CC3CC(C1)C(NC(=O)c1cnn(/C=C/C(C)(C)NC(C)=O)c1OCC(C)C)C(C3)C2` (centres unmarked) [Compound (XIII-1-3)] here?
**A.** The value was 0.838.

**Q.** For `COC(=O)NC12CC3CC(C1)C(NC(=O)c1cnn(/C=C/C(C)(C)NC(C)=O)c1OCC(C)C)C(C3)C2` (centres unmarked) [Compound (XIII-1-2)], which “log k′” value is on record?
**A.** Its value is 0.886.
